Laboratory results reported in patent US8987239B2, “19-nor-steroid derivatives with a 15α,16α-methylene group and a saturated 17,17-spirolactone ring, use thereof, and medicaments containing said derivatives” (Bayer Intellectual Property GmbH, priority 2007, dated 2015).
Like-named read-outs stand apart in the source and are kept apart here.

Key:
progesterone receptor [1] = molecular target: T1, progesterone receptor (Homo sapiens (Human), UniProt P06401); experiment: Progestational action by transactivation test (CHO K1 reporter cells, luciferase); assay type: cell-based; details: for Emax: read-out: In vitro Transactivation Progesterone receptor Agonisten Efficacy
Protocol: 4. Determination of Progestational Action by Means of Transactivation Tests:
The test compounds were added eight hours later, and the cells were incubated with the compounds for 16 hours. The tests were carried out in triplicate. At the end of incubation the medium containing the effector was removed and replaced with lysis buffer. After luciferase assay substrate (Promega, #E1501) had been added, the 96-well plates were then put in a microplate luminometer (Pherastar, BMG labtech), and the luminescence was measured. The IC50 values were evaluated using software for calculating dose-effect relations.
Target sequence in this assay (P06401 679-913, species assumed): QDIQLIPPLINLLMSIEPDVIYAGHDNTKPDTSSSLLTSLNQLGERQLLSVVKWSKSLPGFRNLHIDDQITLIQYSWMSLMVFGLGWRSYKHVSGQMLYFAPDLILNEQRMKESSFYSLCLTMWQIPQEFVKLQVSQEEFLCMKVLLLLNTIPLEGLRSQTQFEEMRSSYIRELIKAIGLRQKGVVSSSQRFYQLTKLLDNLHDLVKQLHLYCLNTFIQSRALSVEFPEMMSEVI

[2] = molecular target: mineralocorticoid receptor (Homo sapiens (Human), UniProt P08235); experiment: Mineralocorticoid receptor binding test (displacement of 3H-aldosterone); details: cytosol from MR-expressing insect cells (Hi5), reference 3H-aldosterone
Description: 2. Mineralocorticoid Receptor Binding Test:

progesterone receptor [3] = molecular target: T1, progesterone receptor; experiment: Progesterone receptor binding test (displacement of 3H-progesterone); details: for Receptor binding Progesterone receptor Competition factor: CF relative to progesterone (=1), CF <1 means higher affinity; for CF PR/CF MR: ratio of competition factors, progesterone receptor to mineralocorticoid receptor; for IC50: read-out: Receptor binding Progesterone receptor IC50, cytosol from PR-expressing insect cells (Hi5), 3H-progesterone
Target sequence in this assay (P06401 whole entry, species assumed): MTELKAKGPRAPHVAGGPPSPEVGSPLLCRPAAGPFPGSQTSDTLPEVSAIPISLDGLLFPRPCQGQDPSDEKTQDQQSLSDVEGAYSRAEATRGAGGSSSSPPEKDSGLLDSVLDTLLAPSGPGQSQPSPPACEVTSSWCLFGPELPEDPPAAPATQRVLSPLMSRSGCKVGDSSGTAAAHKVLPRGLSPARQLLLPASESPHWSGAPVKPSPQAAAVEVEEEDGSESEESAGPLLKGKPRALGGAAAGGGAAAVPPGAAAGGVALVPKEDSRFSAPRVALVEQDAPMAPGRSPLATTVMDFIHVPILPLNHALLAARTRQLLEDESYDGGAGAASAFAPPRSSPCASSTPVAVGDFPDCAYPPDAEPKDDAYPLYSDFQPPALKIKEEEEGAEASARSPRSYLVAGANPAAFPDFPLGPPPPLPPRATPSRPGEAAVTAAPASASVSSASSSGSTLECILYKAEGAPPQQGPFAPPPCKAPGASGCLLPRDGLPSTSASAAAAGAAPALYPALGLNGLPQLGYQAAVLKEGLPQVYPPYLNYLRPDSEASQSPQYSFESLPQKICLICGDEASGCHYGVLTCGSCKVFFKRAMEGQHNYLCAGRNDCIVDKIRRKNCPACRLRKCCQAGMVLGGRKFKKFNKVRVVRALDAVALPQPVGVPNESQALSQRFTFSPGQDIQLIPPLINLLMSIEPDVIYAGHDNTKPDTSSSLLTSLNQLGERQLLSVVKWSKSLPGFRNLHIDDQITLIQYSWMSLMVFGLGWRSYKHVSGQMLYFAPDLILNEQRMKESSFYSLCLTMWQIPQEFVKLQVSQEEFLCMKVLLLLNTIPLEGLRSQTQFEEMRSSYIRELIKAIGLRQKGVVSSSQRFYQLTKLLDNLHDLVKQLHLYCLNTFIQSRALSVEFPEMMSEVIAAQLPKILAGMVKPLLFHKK
Protocol: Progesterone Receptor Binding Test:
Using cytosol from progesterone receptor-expressing insect cells (Hi5), competitive binding to the progesterone receptor was determined from the ability to displace ^3H-progesterone as reference substance from the receptor.

androgen receptor = androgen receptor (Homo sapiens (Human), UniProt P10275); experiment: Androgen receptor binding test (displacement of 3H-testosterone); details: cytosol from AR-expressing insect cells (Hi5); for Receptor binding Androgen receptor Competition factor: reference 3H-testosterone; for IC50: read-out: Receptor binding Androgen receptor IC50, 3H-testosterone
Protocol: Androgen Receptor Binding Test:
The test was carried out as in 1, with the following modifications: cytosol from androgen receptor-expressing insect cells (Hi5) was used, and the reference substance was ^3H-testosterone.

[4] = CHO K1 PR-LBD/Gal4 luciferase reporter cells, 16 hours incubation, read-out: In vitro Transactivation Progesterone receptor Agonisten EC50
[5] = CHO K1 PR-LBD/Gal4 luciferase reporter cells, 16 hours incubation

Chain of mineralocorticoid receptor (P08235 whole entry, species assumed): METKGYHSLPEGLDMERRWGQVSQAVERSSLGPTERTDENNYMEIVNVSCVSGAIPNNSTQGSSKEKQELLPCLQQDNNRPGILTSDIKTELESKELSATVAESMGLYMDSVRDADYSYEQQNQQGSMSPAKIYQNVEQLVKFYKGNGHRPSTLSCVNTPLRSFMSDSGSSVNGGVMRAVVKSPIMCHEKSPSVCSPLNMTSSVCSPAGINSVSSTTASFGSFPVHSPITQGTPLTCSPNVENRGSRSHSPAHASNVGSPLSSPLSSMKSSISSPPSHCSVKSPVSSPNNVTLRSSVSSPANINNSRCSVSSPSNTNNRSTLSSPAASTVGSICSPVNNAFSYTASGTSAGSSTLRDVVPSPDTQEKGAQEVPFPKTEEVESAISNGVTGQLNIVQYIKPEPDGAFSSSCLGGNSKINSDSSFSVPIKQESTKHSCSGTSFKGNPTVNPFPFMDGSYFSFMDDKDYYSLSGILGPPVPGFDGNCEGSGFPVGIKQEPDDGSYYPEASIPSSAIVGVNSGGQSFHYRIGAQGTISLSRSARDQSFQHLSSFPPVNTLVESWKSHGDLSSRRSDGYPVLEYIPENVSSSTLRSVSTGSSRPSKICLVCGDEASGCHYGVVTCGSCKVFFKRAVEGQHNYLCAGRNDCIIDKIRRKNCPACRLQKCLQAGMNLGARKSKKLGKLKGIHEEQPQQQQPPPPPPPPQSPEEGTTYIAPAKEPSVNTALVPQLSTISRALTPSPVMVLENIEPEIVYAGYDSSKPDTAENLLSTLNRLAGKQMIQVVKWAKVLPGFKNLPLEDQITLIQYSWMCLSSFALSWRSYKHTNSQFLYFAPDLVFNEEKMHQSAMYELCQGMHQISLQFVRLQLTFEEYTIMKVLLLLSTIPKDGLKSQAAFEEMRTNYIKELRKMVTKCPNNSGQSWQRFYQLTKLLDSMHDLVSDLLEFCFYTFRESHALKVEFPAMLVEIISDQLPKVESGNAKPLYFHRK
Chain of androgen receptor (P10275 whole entry, species assumed, the tested form may be a part): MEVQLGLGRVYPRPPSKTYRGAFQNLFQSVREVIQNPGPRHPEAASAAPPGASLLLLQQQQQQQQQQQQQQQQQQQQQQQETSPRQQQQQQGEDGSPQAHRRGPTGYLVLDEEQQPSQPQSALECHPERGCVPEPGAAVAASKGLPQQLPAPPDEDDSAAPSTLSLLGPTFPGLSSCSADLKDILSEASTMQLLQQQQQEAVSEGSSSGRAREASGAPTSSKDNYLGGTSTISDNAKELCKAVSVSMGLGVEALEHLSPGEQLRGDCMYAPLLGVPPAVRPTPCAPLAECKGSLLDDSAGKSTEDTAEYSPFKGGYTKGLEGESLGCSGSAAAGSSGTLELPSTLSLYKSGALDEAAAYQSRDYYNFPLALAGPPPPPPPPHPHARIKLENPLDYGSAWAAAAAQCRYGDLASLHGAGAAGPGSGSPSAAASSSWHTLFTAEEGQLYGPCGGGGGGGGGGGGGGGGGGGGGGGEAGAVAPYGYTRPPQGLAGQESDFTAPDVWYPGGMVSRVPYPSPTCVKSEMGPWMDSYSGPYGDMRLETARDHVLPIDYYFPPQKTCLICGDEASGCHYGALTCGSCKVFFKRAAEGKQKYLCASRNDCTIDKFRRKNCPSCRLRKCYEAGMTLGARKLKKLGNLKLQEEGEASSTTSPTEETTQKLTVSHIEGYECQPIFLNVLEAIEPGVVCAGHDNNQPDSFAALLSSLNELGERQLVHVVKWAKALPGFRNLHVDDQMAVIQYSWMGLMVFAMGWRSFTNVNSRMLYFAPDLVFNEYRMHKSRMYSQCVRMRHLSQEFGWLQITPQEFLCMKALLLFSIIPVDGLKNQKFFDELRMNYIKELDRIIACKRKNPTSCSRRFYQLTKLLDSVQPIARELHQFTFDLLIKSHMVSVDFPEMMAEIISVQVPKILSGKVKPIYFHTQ

Row | SMILES | EC50 (progesterone receptor [1]; [4]) | Emax (progesterone receptor [1]; CHO-K1, 16 h) | Receptor binding Mineralocorticoid receptor Competition factor [2] | Emax (progesterone receptor [1]; [5]) | Receptor binding Progesterone receptor Competition factor (progesterone receptor [3]) | Receptor binding Androgen receptor Competition factor (androgen receptor) | IC50 (androgen receptor) | EC50 (progesterone receptor [1]) | CF PR/CF MR (progesterone receptor [3]) | IC50 (progesterone receptor [3])
1 | C[C@]12CCC3C4CCC(=O)C=C4[C@@H]4C[C@@H]4C3C1C1CC1[C@@]21CCC(=O)O1 (stereo in doubt) [compound 9] | 0.001 µM | 77.4% | – | – | – | – | – | – | – | –
2 | C[C@]12CCC(=O)C=C1[C@@H]1C[C@@H]1[C@H]1[C@@H]3[C@@H]4C[C@@H]4[C@@]4(CCC(=O)O4)[C@@]3(C)CC[C@@H]12 [A, 6β,7β-15β,16β-dimethylene-3-oxo-17-pregn-4-ene-21,17β-carbolactone, reference compound] | – | – | 0.5 | 72.2% | 2.7 | – | – | – | – | –
3 | C[C@]12CCC3C4CCC(=O)C=C4CCC3C1C1CC1[C@@]21CCC(=O)O1 (stereo partly drawn) [Example 1, 17β-Hydroxy-15α,16α-methylene-19-nor-17α-pregna-4-en-3-one-21-carboxylic acid γ-lactone] | – | 55.9% | 1.8 | – | – | 110.0 | 0.006 µM | – | – | –
4 | CC1CC2=CC(=O)CCC2C2CC[C@@]3(C)C(C4CC4[C@@]34CCC(=O)O4)C12 (stereo partly drawn) [Example 3, 17β-Hydroxy-7α-methyl-15α,16α-methylene-19-nor-17α-pregna-4-en-3-one-21-carboxylicacid γ-lactone] | – | 87% | 1.3 | – | – | 2.8 | 0.061 µM | – | – | –
5 | CCC1CC2=CC(=O)CCC2C2CC[C@@]3(C)C(C4CC4[C@@]34CCC(=O)O4)C12 (stereo partly drawn) [Example 4, 17β-Hydroxy-7α-ethyl-15α,16α-methylene-19-nor-17α-pregna-4-en-3-one-21-carboxylic acid γ-lactone] | – | 56.7% | 1.2 | – | 1.74 | 5.6 | 0.074 µM | 0.0007 µM | 1.45 | 0.033 µM
6 | C=CC1CC2=CC(=O)CCC2C2CC[C@@]3(C)C(C4CC4[C@@]34CCC(=O)O4)C12 (stereo partly drawn) [Example 5, 17β-Hydroxy-7α-vinyl-15α,16α-methylene-19-nor-17α-pregna-4-en-3-one-21-carboxylic acid γ-lactone] | – | 66.1% | 1.4 | – | 1.16 | 3.0 | 0.055 µM | 0.0034 µM | 0.83 | 0.015 µM
7 | C[C@]12CCC3C4CCC(=O)C=C4CC(C4CC4)C3C1C1CC1[C@@]21CCC(=O)O1 (stereo partly drawn) [Example 6, 17β-Hydroxy-7α-cyclopropyl-15α,16α-methylene-19-nor-17α-pregna-4-en-3-one-21-carboxylic acid γ-lactone] | – | 48.6% | 1.6 | – | 2.65 | 6.3 | 0.078 µM | 0.001 µM | 1.66 | 0.051 µM
8 | C[C@]12CCC3C4CCC(=O)C=C4[C@H](CO)CC3C1C1CC1[C@@]21CCC(=O)O1 (stereo partly drawn) [Example 7, 17β-Hydroxy-6β-hydroxymethyl-15α,16α-methylene-19-nor-17α-pregna-4-en-3-one-21-carboxylic acid γ-lactone] | 0.91 µM | – | 2.1 | 22.8% | 49.90 | 1000.0 | 10 µM | – | 23.76 | 1.1 µM
9 | C[C@]12CCC3C4CCC(=O)C=C4C4(CC4)CC3C1C1CC1[C@@]21CCC(=O)O1 (stereo partly drawn) [Example 8, 6,6-(1,2-Ethanediyl)-17β-hydroxy-15α,16α-methylene-19-nor-17α-pregna-4-en-3-one-21-carboxylic acid γ-lactone] | – | 69.7% | 0.9 | – | 0.71 | 1.4 | 0.026 µM | 0.0001 µM | 0.79 | 0.0089 µM
10 | C[C@]12CCC3C4CCC(=O)C=C4C4CC4C3C1C1CC1[C@@]21CCC(=O)O1 (stereo partly drawn) [Example 9 (B), 17β-hydroxy-6α,7α-15α,16α-bismethylene-19-nor-17α-pregna-4-en-3-one-21-carboxylic acid γ-lactone] | – | – | – | 107% | – | – | – | – | – | –
